The NIST ThermoML archive (doi:10.1021/je8009545)
± gives the expanded uncertainty stated by the source.

Assay: xn = mol fraction of the nth substance listed
Details: Gas; for mass density: Gas pipette; for viscosity: Oscillating disk viscometry

## COC [dimethyl ether] + N#N
373.15 K, 2505 kPa, x1 = 1
  mass density: 51.25 ± 3.1 kg/m3
  viscosity: 0.01219 ± 0.00044 mPa·s
373.15 K, 2875 kPa, x1 = 1
  mass density: 67.49 ± 4 kg/m3
  viscosity: 0.01247 ± 0.00044 mPa·s
373.15 K, 2895 kPa, x1 = 0.82
  mass density: 51.12 ± 3.1 kg/m3
  viscosity: 0.01352 ± 0.00047 mPa·s
373.15 K, 3005 kPa, x1 = 0.281
  mass density: 33.02 ± 2 kg/m3
  viscosity: 0.01823 ± 0.00058 mPa·s
373.15 K, 3049 kPa, x1 = 1
  mass density: 74.07 ± 4.4 kg/m3
  viscosity: 0.01261 ± 0.00045 mPa·s
373.15 K, 3065 kPa, x1 = 0.522
  mass density: 40.84 ± 2.5 kg/m3
  viscosity: 0.01599 ± 0.00053 mPa·s
398.15 K, 101 kPa, x1 = 0.246
  mass density: 0.853 ± 0.052 kg/m3
  viscosity: 0.01917 ± 0.0006 mPa·s
398.15 K, 101 kPa, x1 = 0.525
  mass density: 0.885 ± 0.055 kg/m3
  viscosity: 0.01617 ± 0.00053 mPa·s
398.15 K, 101 kPa, x1 = 0.78
  mass density: 0.727 ± 0.046 kg/m3
  viscosity: 0.01397 ± 0.00048 mPa·s
398.15 K, 101 kPa, x1 = 1
  mass density: 0.948 ± 0.059 kg/m3
  viscosity: 0.01234 ± 0.00044 mPa·s
398.15 K, 300 kPa, x1 = 1
  mass density: 4.392 ± 0.26 kg/m3
  viscosity: 0.01237 ± 0.00044 mPa·s
398.15 K, 310 kPa, x1 = 0.246
  mass density: 2.938 ± 0.18 kg/m3
  viscosity: 0.01921 ± 0.0006 mPa·s
398.15 K, 315 kPa, x1 = 0.78
  mass density: 4.107 ± 0.25 kg/m3
  viscosity: 0.01399 ± 0.00048 mPa·s
398.15 K, 317 kPa, x1 = 0.525
  mass density: 3.633 ± 0.22 kg/m3
  viscosity: 0.01622 ± 0.00053 mPa·s
398.15 K, 516 kPa, x1 = 0.525
  mass density: 5.877 ± 0.35 kg/m3
  viscosity: 0.01623 ± 0.00053 mPa·s
398.15 K, 519 kPa, x1 = 0.246
  mass density: 5.15 ± 0.31 kg/m3
  viscosity: 0.01919 ± 0.0006 mPa·s
398.15 K, 531 kPa, x1 = 1
  mass density: 7.678 ± 0.46 kg/m3
  viscosity: 0.01239 ± 0.00044 mPa·s
398.15 K, 533 kPa, x1 = 0.78
  mass density: 7.077 ± 0.42 kg/m3
  viscosity: 0.01401 ± 0.00048 mPa·s
398.15 K, 992 kPa, x1 = 1
  mass density: 15.1 ± 0.91 kg/m3
  viscosity: 0.01244 ± 0.00044 mPa·s
398.15 K, 1009 kPa, x1 = 0.78
  mass density: 13.52 ± 0.81 kg/m3
  viscosity: 0.0141 ± 0.00048 mPa·s
398.15 K, 1020 kPa, x1 = 0.525
  mass density: 11.91 ± 0.71 kg/m3
  viscosity: 0.01629 ± 0.00053 mPa·s
398.15 K, 1048 kPa, x1 = 0.246
  mass density: 10.02 ± 0.6 kg/m3
  viscosity: 0.01926 ± 0.0006 mPa·s
398.15 K, 2018 kPa, x1 = 0.525
  mass density: 23.95 ± 1.4 kg/m3
  viscosity: 0.01651 ± 0.00054 mPa·s
398.15 K, 2030 kPa, x1 = 0.246
  mass density: 19.75 ± 1.2 kg/m3
  viscosity: 0.01943 ± 0.00061 mPa·s
398.15 K, 2030 kPa, x1 = 0.78
  mass density: 28.37 ± 1.7 kg/m3
  viscosity: 0.01433 ± 0.00049 mPa·s
398.15 K, 2085 kPa, x1 = 1
  mass density: 34.47 ± 2.1 kg/m3
  viscosity: 0.01274 ± 0.00045 mPa·s
398.15 K, 2973 kPa, x1 = 0.246
  mass density: 29.35 ± 1.8 kg/m3
  viscosity: 0.0196 ± 0.00061 mPa·s
398.15 K, 2985 kPa, x1 = 1
  mass density: 54.66 ± 3.3 kg/m3
  viscosity: 0.01317 ± 0.00046 mPa·s
398.15 K, 2986 kPa, x1 = 0.78
  mass density: 44.58 ± 2.7 kg/m3
  viscosity: 0.01465 ± 0.0005 mPa·s
398.15 K, 3015 kPa, x1 = 0.525
  mass density: 36.43 ± 2.2 kg/m3
  viscosity: 0.01675 ± 0.00054 mPa·s
398.15 K, 3735 kPa, x1 = 0.78
  mass density: 58.58 ± 3.5 kg/m3
  viscosity: 0.015 ± 0.0005 mPa·s
398.15 K, 3839 kPa, x1 = 0.246
  mass density: 37.95 ± 2.3 kg/m3
  viscosity: 0.01974 ± 0.00061 mPa·s
398.15 K, 3905 kPa, x1 = 0.525
  mass density: 47.93 ± 2.9 kg/m3
  viscosity: 0.01701 ± 0.00055 mPa·s
398.15 K, 3965 kPa, x1 = 1
  mass density: 87.68 ± 5.3 kg/m3
  viscosity: 0.0141 ± 0.00048 mPa·s
398.15 K, 4480 kPa, x1 = 1
  mass density: 112.3 ± 6.7 kg/m3
  viscosity: 0.01504 ± 0.0005 mPa·s
398.15 K, 4569 kPa, x1 = 0.78
  mass density: 77.25 ± 4.6 kg/m3
  viscosity: 0.0155 ± 0.00052 mPa·s
398.15 K, 4620 kPa, x1 = 1
  mass density: 122.4 ± 7.3 kg/m3
  viscosity: 0.01543 ± 0.00051 mPa·s
398.15 K, 4730 kPa, x1 = 0.525
  mass density: 59.49 ± 3.6 kg/m3
  viscosity: 0.01731 ± 0.00056 mPa·s
398.15 K, 4860 kPa, x1 = 0.246
  mass density: 48.5 ± 2.9 kg/m3
  viscosity: 0.01995 ± 0.00062 mPa·s
423.15 K, 101 kPa, x1 = 0.272
  mass density: 0.662 ± 0.041 kg/m3
  viscosity: 0.01978 ± 0.00062 mPa·s
423.15 K, 101 kPa, x1 = 0.527
  mass density: 0.694 ± 0.043 kg/m3
  viscosity: 0.01721 ± 0.00056 mPa·s
423.15 K, 101 kPa, x1 = 0.764
  mass density: 1.072 ± 0.066 kg/m3
  viscosity: 0.01516 ± 0.00051 mPa·s
423.15 K, 101 kPa, x1 = 1
  mass density: 1.009 ± 0.063 kg/m3
  viscosity: 0.01332 ± 0.00046 mPa·s
423.15 K, 310 kPa, x1 = 1
  mass density: 4.289 ± 0.26 kg/m3
  viscosity: 0.01333 ± 0.00046 mPa·s
423.15 K, 314 kPa, x1 = 0.272
  mass density: 2.901 ± 0.17 kg/m3
  viscosity: 0.01984 ± 0.00062 mPa·s
423.15 K, 316 kPa, x1 = 0.527
  mass density: 3.343 ± 0.2 kg/m3
  viscosity: 0.01723 ± 0.00056 mPa·s
423.15 K, 320 kPa, x1 = 0.764
  mass density: 4.447 ± 0.27 kg/m3
  viscosity: 0.01522 ± 0.00051 mPa·s
423.15 K, 505 kPa, x1 = 0.527
  mass density: 5.456 ± 0.33 kg/m3
  viscosity: 0.01726 ± 0.00056 mPa·s
423.15 K, 505 kPa, x1 = 1
  mass density: 6.812 ± 0.41 kg/m3
  viscosity: 0.01335 ± 0.00047 mPa·s
423.15 K, 520 kPa, x1 = 0.764
  mass density: 6.591 ± 0.4 kg/m3
  viscosity: 0.01524 ± 0.00051 mPa·s
423.15 K, 529 kPa, x1 = 0.272
  mass density: 4.699 ± 0.28 kg/m3
  viscosity: 0.01986 ± 0.00062 mPa·s
423.15 K, 985 kPa, x1 = 1
  mass density: 13.75 ± 0.83 kg/m3
  viscosity: 0.01342 ± 0.00047 mPa·s
423.15 K, 1021 kPa, x1 = 0.764
  mass density: 12.33 ± 0.74 kg/m3
  viscosity: 0.0153 ± 0.00051 mPa·s
423.15 K, 1040 kPa, x1 = 0.272
  mass density: 9.555 ± 0.57 kg/m3
  viscosity: 0.01994 ± 0.00062 mPa·s
423.15 K, 1047 kPa, x1 = 0.527
  mass density: 11.35 ± 0.68 kg/m3
  viscosity: 0.01734 ± 0.00056 mPa·s
423.15 K, 2013 kPa, x1 = 0.527
  mass density: 22.17 ± 1.3 kg/m3
  viscosity: 0.01753 ± 0.00056 mPa·s
423.15 K, 2022 kPa, x1 = 1
  mass density: 30.21 ± 1.8 kg/m3
  viscosity: 0.0137 ± 0.00047 mPa·s
423.15 K, 2030 kPa, x1 = 0.272
  mass density: 18.92 ± 1.1 kg/m3
  viscosity: 0.02008 ± 0.00062 mPa·s
423.15 K, 2060 kPa, x1 = 0.764
  mass density: 25.8 ± 1.6 kg/m3
  viscosity: 0.01558 ± 0.00052 mPa·s
423.15 K, 2926 kPa, x1 = 0.764
  mass density: 38.25 ± 2.3 kg/m3
  viscosity: 0.01581 ± 0.00052 mPa·s
423.15 K, 2955 kPa, x1 = 0.272
  mass density: 27.91 ± 1.7 kg/m3
  viscosity: 0.02018 ± 0.00062 mPa·s
423.15 K, 2995 kPa, x1 = 0.527
  mass density: 33.84 ± 2 kg/m3
  viscosity: 0.01769 ± 0.00057 mPa·s
423.15 K, 3004 kPa, x1 = 1
  mass density: 48.47 ± 2.9 kg/m3
  viscosity: 0.01413 ± 0.00048 mPa·s
423.15 K, 3970 kPa, x1 = 0.764
  mass density: 54.49 ± 3.3 kg/m3
  viscosity: 0.01621 ± 0.00053 mPa·s
423.15 K, 3973 kPa, x1 = 0.527
  mass density: 45.63 ± 2.7 kg/m3
  viscosity: 0.01796 ± 0.00057 mPa·s
423.15 K, 4000 kPa, x1 = 0.272
  mass density: 37.87 ± 2.3 kg/m3
  viscosity: 0.02038 ± 0.00063 mPa·s
423.15 K, 4015 kPa, x1 = 1
  mass density: 71.3 ± 4.3 kg/m3
  viscosity: 0.01477 ± 0.0005 mPa·s
423.15 K, 4495 kPa, x1 = 1
  mass density: 86.57 ± 5.2 kg/m3
  viscosity: 0.01521 ± 0.00051 mPa·s
423.15 K, 4873 kPa, x1 = 0.527
  mass density: 56.58 ± 3.4 kg/m3
  viscosity: 0.01822 ± 0.00058 mPa·s
423.15 K, 4894 kPa, x1 = 0.764
  mass density: 69.38 ± 4.2 kg/m3
  viscosity: 0.01664 ± 0.00054 mPa·s
423.15 K, 4911 kPa, x1 = 0.272
  mass density: 46.7 ± 2.8 kg/m3
  viscosity: 0.02057 ± 0.00063 mPa·s
423.15 K, 4912 kPa, x1 = 1
  mass density: 99.15 ± 6 kg/m3
  viscosity: 0.01568 ± 0.00052 mPa·s
